Values quoted from earlier work in patent US20220211620A1, “Pain Relieving Spray” (Animal Ethics Pty Ltd, priority 2019, published 2022).

Settings: up to about; depending on the method of administration

CCCCN1CCCCC1C(=O)Nc1c(C)cccc1C (stereo not shown) [bupivacaine]
duration of anaesthesia typically provided: 6 to 12 h
